Data from paper PMC9862751, “Identifying Dopamine D3 Receptor Ligands through Virtual Screening and Exploring the Binding Modes of Hit Compounds” (Molecules, 2023).

Target: human D3R (Homo sapiens, UniProt P35462)
Test: [3H]-spiperone filtration binding assay on membranes from CHO–hDRD3 cells
Details: for inhibition at 10 µM: read-out: Inhibition Rate at 10 µM
Procedure: CHO-K1 cells expressing human D3R (CHO–hDRD3; HD Euroscreen Fast, Brussels, Belgium) were homogenized in 4× v/w buffer (15 mM Tris, 2 mM MgCl2, 0.3 mM EDTA, 1 mM EGTA, pH = 7.4 at 25 °C) with a Dounce tissue grinder and centrifuged at 40,000× g at 4 °C for 25 min. The supernatant was removed, and the pellet was resuspended in 4× v/w buffer and recentrifuged. […] The preparations were then aliquoted and stored at −70 °C [11].
The aliquoted membranes were thawed and washed once in binding buffer (50 mM Tris HCl, 5 mM MgCl2, 5 mM KCl, 1 mM CaCl2, 120 mM NaCl, and 1mM EDTA). […] The incubations were carried out for 120 min at 25 °C in 250 µL in individual wells of a 96-well deep-well plate. […] Non-specific binding was determined in the presence of 10 mM haloperidol. After incubation, the samples were filtered over UniFilter GF/B^TM using PerkinElmer Harvester and washed with 4 × 1 mL ice-cold binding buffer. The plate was dried at 40 °C for 1 h and 40 µL MicroScint scintillation cocktail (PerkinElmer) was added to each well. […] Specific radioligand binding was defined as the difference between total binding and non-specific binding determined in the presence of excess haloperidol. Inhibition percentage (%) = (total binding counts − test compounds binding counts)/(total binding counts—non-specific binding counts) [11].

Sequence of human D3R (P35462 whole entry): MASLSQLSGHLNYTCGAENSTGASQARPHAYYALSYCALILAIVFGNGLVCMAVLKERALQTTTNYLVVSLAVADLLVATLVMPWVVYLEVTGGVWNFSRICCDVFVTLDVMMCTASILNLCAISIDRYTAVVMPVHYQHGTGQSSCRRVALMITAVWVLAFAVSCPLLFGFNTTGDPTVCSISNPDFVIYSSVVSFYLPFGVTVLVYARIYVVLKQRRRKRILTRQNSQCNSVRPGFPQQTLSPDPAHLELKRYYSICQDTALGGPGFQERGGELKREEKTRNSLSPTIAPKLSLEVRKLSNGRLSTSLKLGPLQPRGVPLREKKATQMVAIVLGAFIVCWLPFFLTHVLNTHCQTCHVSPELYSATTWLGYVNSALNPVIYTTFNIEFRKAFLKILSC

Structure (SMILES) | Inhibition Rate at 10 µM (10 µM test compound, displacement of [3H]-spiperone) [%] | IC50 [nM] | inhibition at 10 µM [%]
Cc1oc(-c2ccc(C(=O)NCc3ccccc3)cc2)nc1CN1CCc2ccccc21 [Compound G373-0280] | 74.8 |  | 
Cc1ccc(SCc2nc(-c3ccc(C(=O)Nc4ccc5c(c4)OCO5)cc3)oc2C)cc1 [Compound E776-0059] |  | 970 | 96.9
Cc1nc(Nc2ccc(NC(=O)Nc3ccc4c(c3)OCCO4)cc2)cc(NC2CCCCC2)n1 [Compound D638-0102] |  | 1480 | 93.6
Cc1cc(N2CCC(C(=O)N[C@@H]3CCCc4ccccc43)CC2)n2nc(-c3ccccc3)cc2n1 [Compound L227-1012] |  | 1490 | 94.8
Cc1ccc(-c2c3c(=O)n(C)c(=O)n(C)c3c3n2C(C)(C)CO[C@H]3c2ccc(C)cc2O)cc1 [Compound D280-0447] |  | 1250 | 99.3
Cc1ccc(CNC(=O)c2ccc3c(=O)n(-c4ccc(C)cc4)c(N4CCCC4)nc3c2)cc1 [Compound F072-0905] |  | 1410 | 99.5
